Assay results reported in ChEMBL document CHEMBL4130396, “Bistinospinosides A and B, Dimeric Clerodane Diterpene Glycosides from Tinospora sagittata” (J Nat Prod, 2017).
Positions of bridges follow the written chain, without caps; N, C: chain ends. Non-standard residues stand in square brackets, D forms with d. Residues, ends and D or L forms follow the SMILES beside them. *: point of attachment. X1 = CC[C@H](C)CCCCC(=O)*; Dab = NCC[C@H](N)C(=O)O

Tested on: J774.1
Assay: Antiinflammatory activity in mouse J774.1 cells assessed as inhibition of LPS/[…]-induced NO production after 48 hrs by Griess assay
Assay type: functional, cell-based
Settings: J774.1, 48 h

`C[C@@]12C[C@@H](C3=C[C@@H]4O[C@H]3[C@H]3[C@H]5OC(=O)[C@@](O[C@@H]6O[C@H](CO)[C@@H](O)[C@H](O)[C@H]6O)([C@H]34)[C@]3(C)CC[C@H]4C(=O)O[C@H](c6ccoc6)C[C@@]4(C)[C@H]53)OC(=O)[C@@H]1CC[C@]1(C)[C@H]2[C@H]2C=C[C@]1(O[C@@H]1O[C@H](CO)[C@@H](O)[C@H](O)[C@H]1O)C(=O)O2` was tested. Which IC50 did it give?
The IC50 was > 50 µM.

For `C[C@@]12C[C@@H](C3=C[C@H]4O[C@@H]3[C@H]3[C@@H]4[C@H]4OC(=O)[C@]3(O[C@@H]3O[C@H](CO)[C@@H](O)[C@H](O)[C@H]3O)[C@]3(C)CC[C@H]5C(=O)O[C@H](c6ccoc6)C[C@@]5(C)[C@H]43)OC(=O)[C@@H]1CC[C@]1(C)[C@H]2[C@H]2C=C[C@]1(O[C@@H]1O[C@H](CO)[C@@H](O)[C@H](O)[C@H]1O)C(=O)O2`, which IC50 is on record?
Its IC50 is > 50 µM.

Which IC50 does the source give for `CC[C@H](C)CCCCC(=O)N[C@@H](CCN)C(=O)N[C@H](C(=O)N[C@@H](CCN)C(=O)N[C@H]1CCNC(=O)[C@H]([C@@H](C)O)NC(=O)[C@H](CCN)NC(=O)[C@H](CCN)NC(=O)[C@H](CC(C)C)NC(=O)[C@@H](Cc2ccccc2)NC(=O)[C@H](CCN)NC1=O)[C@@H](C)O` (X1-[Dab]T[Dab][Dab][Dab][dF]L[Dab][Dab]T; lactam 4-C) here?
The IC50 was 8.5 µM.
